From US20250236608A1, “EGFR INHIBITORS” (Blueprint Medicines Corporation, priority 2022, published 2025) come the findings set out here.

Test [1] addresses EGFR L858R (Homo sapiens (Human), UniProt P00533, L858R). The experiment in a line: Biochemical EGFR inhibition assay, EGFR L858R. Conditions: Caliper mobility shift; 1.0 mM ATP or ATP Km; read-out: Enz EGFR_L858R IC50.
Test [2] addresses pEGFR (Tyr1068) in PC-9 cells (Ex19Del) (Homo sapiens (Human), UniProt P00533, DEL746-750). The experiment in a line: PC-9 pEGFR AlphaLISA assay. The test is classed as cell-based. Conditions: 4 hours incubation, p-EGFR (Tyr1068) AlphaLISA, read-out: Ext pEGFR_PC-9 Ex19Del IC50. The procedure, abridged: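 PC-9 cells seeded overnight in phenol-free DMEM with 10% FBS, then treated 4 h at 37°C with a 10-point, 4-fold compound series. Lysates assayed for pEGFR Tyr1068 by AlphaLISA SureFire; IC50 from % inhibition vs log concentration.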
For orientation: Alpha assays give light when donor and acceptor beads are brought close together.

Test [3] deals with EGFR (d746-750) (Homo sapiens (Human), UniProt P00533, DEL746-750). The experiment in a line: Biochemical EGFR inhibition assay, EGFR (d746-750). Conditions: Caliper mobility shift; 1.0 mM ATP or ATP Km; read-out: Enz EGFR_Exon19-del746-750 IC50.
EGFR (d746-750), sequence (P00533 other isoform, or with tags, fused parts or gaps del 1-694/del 746-750 limits assumed): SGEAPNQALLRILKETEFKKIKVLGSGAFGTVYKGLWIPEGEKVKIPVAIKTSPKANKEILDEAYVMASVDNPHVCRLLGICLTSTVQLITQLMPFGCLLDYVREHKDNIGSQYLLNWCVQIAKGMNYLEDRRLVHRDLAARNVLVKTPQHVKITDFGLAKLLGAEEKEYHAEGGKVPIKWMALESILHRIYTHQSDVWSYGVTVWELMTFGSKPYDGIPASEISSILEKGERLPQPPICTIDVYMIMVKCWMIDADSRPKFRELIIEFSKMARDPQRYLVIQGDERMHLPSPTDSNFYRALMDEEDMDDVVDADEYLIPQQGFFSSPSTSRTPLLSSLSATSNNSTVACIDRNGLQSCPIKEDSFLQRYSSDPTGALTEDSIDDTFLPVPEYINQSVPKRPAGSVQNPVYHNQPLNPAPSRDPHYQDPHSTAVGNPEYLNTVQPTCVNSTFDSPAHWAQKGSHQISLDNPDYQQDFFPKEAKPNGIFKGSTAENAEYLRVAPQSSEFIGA

pEGFR (Tyr1068) in PC-9 cells (Ex19Del), sequence (P00533 other isoform, or with tags, fused parts or gaps del 746-750): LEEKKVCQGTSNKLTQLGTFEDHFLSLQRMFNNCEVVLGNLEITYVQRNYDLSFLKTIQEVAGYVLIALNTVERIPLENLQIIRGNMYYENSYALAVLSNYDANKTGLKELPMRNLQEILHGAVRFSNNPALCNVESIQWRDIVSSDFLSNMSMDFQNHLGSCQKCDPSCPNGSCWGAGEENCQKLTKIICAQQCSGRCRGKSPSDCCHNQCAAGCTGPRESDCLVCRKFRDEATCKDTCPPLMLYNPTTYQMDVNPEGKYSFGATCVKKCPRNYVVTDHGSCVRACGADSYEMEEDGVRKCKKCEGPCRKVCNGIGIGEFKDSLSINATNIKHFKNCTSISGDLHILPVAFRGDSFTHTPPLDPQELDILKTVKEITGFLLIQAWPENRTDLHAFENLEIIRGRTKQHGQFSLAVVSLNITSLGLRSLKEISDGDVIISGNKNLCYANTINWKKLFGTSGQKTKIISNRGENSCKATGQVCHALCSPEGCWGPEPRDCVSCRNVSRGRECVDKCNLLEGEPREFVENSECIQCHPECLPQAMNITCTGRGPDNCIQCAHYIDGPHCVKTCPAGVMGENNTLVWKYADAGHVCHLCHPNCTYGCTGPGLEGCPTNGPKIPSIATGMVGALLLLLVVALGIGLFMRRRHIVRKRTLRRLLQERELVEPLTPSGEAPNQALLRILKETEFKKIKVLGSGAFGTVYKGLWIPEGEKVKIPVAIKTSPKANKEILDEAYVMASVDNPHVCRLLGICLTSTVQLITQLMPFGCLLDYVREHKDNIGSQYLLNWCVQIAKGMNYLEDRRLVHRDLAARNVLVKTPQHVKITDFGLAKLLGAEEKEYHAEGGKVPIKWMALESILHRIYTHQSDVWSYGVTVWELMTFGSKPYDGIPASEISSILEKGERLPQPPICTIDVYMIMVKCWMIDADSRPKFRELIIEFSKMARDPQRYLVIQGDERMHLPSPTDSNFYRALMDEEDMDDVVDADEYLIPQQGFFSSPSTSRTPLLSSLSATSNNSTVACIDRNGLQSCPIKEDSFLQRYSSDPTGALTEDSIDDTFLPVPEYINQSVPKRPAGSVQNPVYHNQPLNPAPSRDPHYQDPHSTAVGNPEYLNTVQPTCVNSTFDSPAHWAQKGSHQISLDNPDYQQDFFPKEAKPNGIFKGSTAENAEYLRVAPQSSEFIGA
EGFR L858R, sequence (P00533 25-1210 L858R): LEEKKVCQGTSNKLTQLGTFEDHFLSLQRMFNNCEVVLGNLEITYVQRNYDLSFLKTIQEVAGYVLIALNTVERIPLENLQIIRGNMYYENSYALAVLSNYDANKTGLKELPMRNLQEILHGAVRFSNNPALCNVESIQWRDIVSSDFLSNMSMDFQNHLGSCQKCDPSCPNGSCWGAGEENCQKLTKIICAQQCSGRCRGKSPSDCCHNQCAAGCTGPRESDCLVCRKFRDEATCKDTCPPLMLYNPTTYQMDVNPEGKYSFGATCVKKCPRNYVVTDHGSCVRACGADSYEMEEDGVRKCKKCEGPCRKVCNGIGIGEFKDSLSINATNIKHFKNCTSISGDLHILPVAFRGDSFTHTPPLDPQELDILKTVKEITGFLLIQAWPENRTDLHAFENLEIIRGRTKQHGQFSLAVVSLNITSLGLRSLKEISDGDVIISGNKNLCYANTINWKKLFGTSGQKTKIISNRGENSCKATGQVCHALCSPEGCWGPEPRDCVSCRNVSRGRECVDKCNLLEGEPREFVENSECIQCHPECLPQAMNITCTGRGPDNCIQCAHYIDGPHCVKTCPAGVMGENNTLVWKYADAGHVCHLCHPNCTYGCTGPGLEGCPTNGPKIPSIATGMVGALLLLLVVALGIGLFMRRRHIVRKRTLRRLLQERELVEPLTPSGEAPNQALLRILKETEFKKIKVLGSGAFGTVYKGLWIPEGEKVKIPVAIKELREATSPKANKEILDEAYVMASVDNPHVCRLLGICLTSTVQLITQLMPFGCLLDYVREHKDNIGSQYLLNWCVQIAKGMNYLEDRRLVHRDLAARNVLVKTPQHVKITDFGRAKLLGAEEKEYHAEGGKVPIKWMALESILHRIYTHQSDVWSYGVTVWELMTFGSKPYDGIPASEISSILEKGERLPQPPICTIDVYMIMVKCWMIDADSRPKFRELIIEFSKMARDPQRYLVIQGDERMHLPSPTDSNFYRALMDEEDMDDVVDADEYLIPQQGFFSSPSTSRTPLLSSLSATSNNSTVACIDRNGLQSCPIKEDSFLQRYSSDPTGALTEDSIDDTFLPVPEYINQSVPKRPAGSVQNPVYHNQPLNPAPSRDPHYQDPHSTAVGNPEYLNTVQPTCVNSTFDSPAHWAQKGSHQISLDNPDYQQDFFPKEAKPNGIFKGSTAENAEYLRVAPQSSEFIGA

A word on the IC50: it is the midpoint of a concentration-inhibition curve. `CCn1cc(-c2ncnc3cc(OC)c(NC(=O)[C@@]45C[C@@H]4CN(C)C5)nc23)c(-c2ccc(F)cc2)n1` (single isomer, unassigned) [Example 398, (1S,5S)—N-(4-(1-ethyl-3-(4-fluorophenyl)-1H-pyrazol-4-yl)-7-methoxypyrido[3,2-d]pyrimidin-6-yl)-3-methyl-3-azabicyclo[3.1.0]hexane-1-carboxamide or (1R,5R)—N-(4-(1-ethyl-3-(4-fluorophenyl)-1H-pyrazol-4-yl)-7-methoxypyrido[3,2-d]pyrimidin-6-yl)-3-methyl-3-azabicyclo[3.1.0]hexane-1-carboxamide]: the figures for the IC50 in test [1], in test [2] and in test [3] were 2.6 nM, 1.3 nM and 1.4 nM, respectively.

For `CCn1cc(-c2ncnc3cc(OC)c(NC(=O)[C@]45C[C@H]4CN(C)C5)nc23)c(-c2ccc(F)cc2)n1` (single isomer, unassigned) [Example 399, (1R,5R)—N-(4-(1-ethyl-3-(4-fluorophenyl)-1H-pyrazol-4-yl)-7-methoxypyrido[3,2-d]pyrimidin-6-yl)-3-methyl-3-azabicyclo[3.1.0]hexane-1-carboxamide or (1S,5S)—N-(4-(1-ethyl-3-(4-fluorophenyl)-1H-pyrazol-4-yl)-7-methoxypyrido[3,2-d]pyrimidin-6-yl)-3-methyl-3-azabicyclo[3.1.0]hexane-1-carboxamide], the IC50 was determined as 1.2 nM in test [1], 1.3 nM in test [2] and 0.9 nM in test [3].

Consider `CCOc1cc2ncnc(-c3cn(C)nc3-c3ccccc3F)c2nc1NC(=O)[C@@]12C[C@@H]1CN(C)C2` (single isomer, unassigned) [Example 400, (1S,5S)—N-(7-ethoxy-4-(3-(2-fluorophenyl)-1-methyl-1H-pyrazol-4-yl)pyrido[3,2-d]pyrimidin-6-yl)-3-methyl-3-azabicyclo[3.1.0]hexane-1-carboxamide or (1R,5R)—N-(7-ethoxy-4-(3-(2-fluorophenyl)-1-methyl-1H-pyrazol-4-yl)pyrido[3,2-d]pyrimidin-6-yl)-3-methyl-3-azabicyclo[3.1.0]hexane-1-carboxamide], for which the IC50 in test [1] is 141 nM; in test [2], 2 nM; in test [3], 1.6 nM.

Regarding `CCOc1cc2ncnc(-c3cn(C)nc3-c3ccccc3F)c2nc1NC(=O)[C@]12C[C@H]1CN(C)C2` (single isomer, unassigned) [Example 401, (1R,5R)—N-(7-ethoxy-4-(3-(2-fluorophenyl)-1-methyl-1H-pyrazol-4-yl)pyrido[3,2-d]pyrimidin-6-yl)-3-methyl-3-azabicyclo[3.1.0]hexane-1-carboxamide or (1S,5S)—N-(7-ethoxy-4-(3-(2-fluorophenyl)-1-methyl-1H-pyrazol-4-yl)pyrido[3,2-d]pyrimidin-6-yl)-3-methyl-3-azabicyclo[3.1.0]hexane-1-carboxamide], the IC50 was determined as 53 nM in test [1], 2.3 nM in test [2] and 1.2 nM in test [3].

`COc1cc2ncnc(-c3cn(C4CC4)nc3-c3ccccc3)c2nc1NC(=O)[C@@]12C[C@@H]1CN(C)C2` (single isomer, unassigned) [Example 406, (1S,5S)—N-(4-(1-cyclopropyl-3-phenyl-1H-pyrazol-4-yl)-7-methoxypyrido[3,2-d]pyrimidin-6-yl)-3-methyl-3-azabicyclo[3.1.0]hexane-1-carboxamide or (1R,5R)—N-(4-(1-cyclopropyl-3-phenyl-1H-pyrazol-4-yl)-7-methoxypyrido[3,2-d]pyrimidin-6-yl)-3-methyl-3-azabicyclo[3.1.0]hexane-1-carboxamide]: the half-inhibitory concentration (IC50) in test [1] turned out to be 1.2 nM; in test [2], 0.9 nM; in test [3], 0.7 nM.

On to `COc1cc2ncnc(-c3cn(C4CC4)nc3-c3ccccc3)c2nc1NC(=O)[C@]12C[C@H]1CN(C)C2` (single isomer, unassigned) [Example 407, (1R,5R)—N-(4-(1-cyclopropyl-3-phenyl-1H-pyrazol-4-yl)-7-methoxypyrido[3,2-d]pyrimidin-6-yl)-3-methyl-3-azabicyclo[3.1.0]hexane-1-carboxamide or (1S,5S)—N-(4-(1-cyclopropyl-3-phenyl-1H-pyrazol-4-yl)-7-methoxypyrido[3,2-d]pyrimidin-6-yl)-3-methyl-3-azabicyclo[3.1.0]hexane-1-carboxamide], for which the figures for the IC50 in test [1], in test [2] and in test [3] were 2.1 nM, 1.4 nM and 0.7 nM, respectively.

With `COc1cc2ncnc(-c3cn(CC4CC4)nc3-c3ccccc3)c2nc1NC(=O)[C@@]12C[C@@H]1CN(C)C2` (single isomer, unassigned) [Example 408, (1R,5R)—N-(4-(1-(cyclopropylmethyl)-3-phenyl-1H-pyrazol-4-yl)-7-methoxypyrido[3,2-d]pyrimidin-6-yl)-3-methyl-3-azabicyclo[3.1.0]hexane-1-carboxamide or (1S,5S)—N-(4-(1-(cyclopropylmethyl)-3-phenyl-1H-pyrazol-4-yl)-7-methoxypyrido[3,2-d]pyrimidin-6-yl)-3-methyl-3-azabicyclo[3.1.0]hexane-1-carboxamide], the figures for the IC50 in test [1], in test [2] and in test [3] were 1.5 nM, 0.7 nM and 0.7 nM, respectively.

In the case of `COc1cc2ncnc(-c3cn(CC4CC4)nc3-c3ccccc3)c2nc1NC(=O)[C@]12C[C@H]1CN(C)C2` (single isomer, unassigned) [Example 409, (1S,5S)—N-(4-(1-(cyclopropylmethyl)-3-phenyl-1H-pyrazol-4-yl)-7-methoxypyrido[3,2-d]pyrimidin-6-yl)-3-methyl-3-azabicyclo[3.1.0]hexane-1-carboxamide or (1R,5R)—N-(4-(1-(cyclopropylmethyl)-3-phenyl-1H-pyrazol-4-yl)-7-methoxypyrido[3,2-d]pyrimidin-6-yl)-3-methyl-3-azabicyclo[3.1.0]hexane-1-carboxamide], the figures for the IC50 in test [1], in test [2] and in test [3] were 1 nM, 0.8 nM and 0.6 nM, respectively.

Take `COc1cc2ncnc(-c3cn(C)nc3-c3ccc(F)cc3)c2nc1NC(=O)[C@@]12C[C@@H]1CN(C)C2` (single isomer, unassigned) [Example 410, (1S,5S)—N-(4-(3-(4-fluorophenyl)-1-methyl-1H-pyrazol-4-yl)-7-methoxypyrido[3,2-d]pyrimidin-6-yl)-3-methyl-3-azabicyclo[3.1.0]hexane-1-carboxamide or (1R,5R)—N-(4-(3-(4-fluorophenyl)-1-methyl-1H-pyrazol-4-yl)-7-methoxypyrido[3,2-d]pyrimidin-6-yl)-3-methyl-3-azabicyclo[3.1.0]hexane-1-carboxamide]: the IC50 turned out to be 2.9 nM in test [1], 2.5 nM in test [2] and 1.1 nM in test [3].

With `COc1cc2ncnc(-c3cn(C)nc3-c3ccc(F)cc3)c2nc1NC(=O)[C@]12C[C@H]1CN(C)C2` (single isomer, unassigned) [Example 411, (1R,5R)—N-(4-(3-(4-fluorophenyl)-1-methyl-1H-pyrazol-4-yl)-7-methoxypyrido[3,2-d]pyrimidin-6-yl)-3-methyl-3-azabicyclo[3.1.0]hexane-1-carboxamide or (1S,5S)—N-(4-(3-(4-fluorophenyl)-1-methyl-1H-pyrazol-4-yl)-7-methoxypyrido[3,2-d]pyrimidin-6-yl)-3-methyl-3-azabicyclo[3.1.0]hexane-1-carboxamide], the IC50 in test [1] is 2.6 nM; in test [2], 2.3 nM; in test [3], 1.3 nM.

Consider `COc1cc2ncnc(-c3cn(C)nc3-c3ccccc3)c2nc1NC(=O)[C@]12CN(C)C[C@H]1C2(F)F` (single isomer, unassigned) [Example 416, (1R,5S)-6,6-difluoro-N-(7-methoxy-4-(1-methyl-3-phenyl-1H-pyrazol-4-yl)pyrido[3,2-d]pyrimidin-6-yl)-3-methyl-3-azabicyclo[3.1.0]hexane-1-carboxamide or (1S,5R)-6,6-difluoro-N-(7-methoxy-4-(1-methyl-3-phenyl-1H-pyrazol-4-yl)pyrido[3,2-d]pyrimidin-6-yl)-3-methyl-3-azabicyclo[3.1.0]hexane-1-carboxamide], for which the figures for the IC50 in test [1], in test [2] and in test [3] were 1.8 nM, 0.8 nM and 1 nM, respectively.

Consider `COc1cc2ncnc(-c3cn(C)nc3-c3ccccc3)c2nc1NC(=O)[C@@]12CN(C)C[C@@H]1C2(F)F` (single isomer, unassigned) [Example 417, (1S,5R)-6,6-difluoro-N-(7-methoxy-4-(1-methyl-3-phenyl-1H-pyrazol-4-yl)pyrido[3,2-d]pyrimidin-6-yl)-3-methyl-3-azabicyclo[3.1.0]hexane-1-carboxamide or (1R,5S)-6,6-difluoro-N-(7-methoxy-4-(1-methyl-3-phenyl-1H-pyrazol-4-yl)pyrido[3,2-d]pyrimidin-6-yl)-3-methyl-3-azabicyclo[3.1.0]hexane-1-carboxamide], for which the IC50 in test [1] was determined as 1.5 nM; in test [2] it was 0.9 nM; in test [3] it was 0.8 nM.

For the compound `COc1cc2ncnc(-c3cn(C)nc3-c3ccc(F)cc3F)c2nc1NC(=O)[C@@]12C[C@@H]1CN(C)C2` (single isomer, unassigned) [Example 423, (1S,5S)—N-(4-(3-(2,4-difluorophenyl)-1-methyl-1H-pyrazol-4-yl)-7-methoxypyrido[3,2-d]pyrimidin-6-yl)-3-methyl-3-azabicyclo[3.1.0]hexane-1-carboxamide or (1R,5R)—N-(4-(3-(2,4-difluorophenyl)-1-methyl-1H-pyrazol-4-yl)-7-methoxypyrido[3,2-d]pyrimidin-6-yl)-3-methyl-3-azabicyclo[3.1.0]hexane-1-carboxamide], the IC50 in test [1] came out at 4.1 nM; in test [2], 3.8 nM; in test [3], 1.6 nM.
